According to US12390423B2 (priority 2019, dated 2025):
“Also recorded” adds a separate entry of the source.

Assays:
[1] = system: AMPK activation and mitochondrial biogenesis; assay: Immunoblotting (pAMPKα, PGC-1α) and NAO mitochondrial mass in INS-1 (832/13) cells; type: cell-based, rat; settings: 25 μM AvoB, 24 h
Procedure: For all ROS studies, INS-1 (832/13) cells and C2C12 myotubes were treated with or without palmitate and FAO inhibitors for 24 h in low glucose cell culture media as described for the FAO assay. After treatment, cells were trypsinized and re-suspended in PBS containing 5 μM of the fluorescent dye MitoSOX® (Molecular Probes, Invitrogen) and allowed to incubate for 5-15 minutes in a humidified atmosphere containing 5% CO2 at 37° C. Cells were then washed in PBS, placed in a 96 well plate and fluorescence was measured by flow cytometry. ROS was quantified by normalizing the mean fluorescence values of live gated cells to vehicle control. Mitochondrial membrane potential (MMP) in INS-1 (832/13) and C2C12 myotubes was measured using the cationic fluorescent dye JC-1 (Molecular Probes). […] JC-1 fluoresces green in the cytosol where it exists as a monomer, after entering the mitochondria JC-1 monomers form J aggregates and fluoresce red, thus the red/green fluorescence ratio is used to determine MMP. […] Cells were then washed in PBS, placed in a 96 well plate and fluorescence was measured by flow cytometry. MMP was quantified by normalizing the mean fluorescence values of live gated cells to vehicle control. […] Cells were treated, washed and collected as described and incubated with 0.35 μM NAO and green fluorescence was measured using flow cytometry. […]

C2C12 myotubes = assay: High resolution respirometry in C2C12 myotubes; type: cell-based, mouse; settings: 25 μM AvoB
Procedure: Cells treated with test compounds for 24 h were trypsinized, counted, and resuspended in phosphate buffer saline (PBS). High-resolution O2 consumption measurements were conducted in 2 ml of respiration medium (PBS, pH 7.5, stir speed 750 rpm) using the Oroboros Oxygraph-2k (Oroboros Instruments, Corp., Innsbruck, Austria) set to 37° C. with a gain of 2 in both chambers. Briefly, after the injection of 5 million treated INS-1 (832/13) cells or C2C12 myotubes per chamber, basal respiration was measured once steady-state respiratory flux was obtained; this represents coupled respiration fueled by available substrates from the incubation with test compounds. Uncoupled respiration was then measured following addition of the ATP synthase inhibitor oligomycin (0.25 μM). This was followed by measuring maximal respiratory rate by stepwise titration of carbonyl cyanide p-trifluoromethoxy phenyl hydrazone (FCCP; within 0.1-0.25 μM) in the presence of 1 mmol/L pyruvate. […] Data was recorded with DatLab software (Oroboros Instruments, Innsbruck, Austria), oxygen consumption at each step of the protocol was normalized to vehicle control and illustrated in histograms. For all HRR protocols, cell viability was determined after trypsinization and also after end of HRR runs via trypan blue cell staining and counting using a hemocytometer. […]

[2] = Treatment model of diet-induced obesity (DIO) in mice: body and fat pad weights; type: in vivo, C57BL/6J mice; settings: HFD mice, AvoB 100 mg/kg b.w. oral gavage twice weekly for 5 weeks, vs HFD-control
Procedure: For the treatment study, twelve-week-old male C57BL/6J mice were purchased from Jackson Laboratory (Bar Harbor, ME) and allowed to acclimatize for 1 week. After acclimatization, mice received either a high-fat diet (HFD) (60% kcal from lard; Research Diet D12492; Research Diets, USA) or a standard diet (10-13% kcal from fat; Teklad 2014; Envigo, USA) for eight weeks. […] Animal weights were monitored twice weekly. At study completion, animals were euthanized (10-12 h into their dark cycle) via CO2 followed by exsanguination, after which tissue and blood was collected.

[3] = Avocatin B oral consumption pilot clinical study (Phase I, NCT03898505)
Procedure: A single center, double-blind, placebo-controlled, randomized, pilot clinical study was executed to determine the safety of consuming 50 mg (equivalent to consuming a quarter Hass avocado pulp) or 200 mg (equivalent to consuming one Hass avocado pulp) AvoB per day for 60 days in healthy human participants (NCT03898505).
The investigational product was approved by Health Canada (natural product number (NPN) 80074296). To create the product, freeze-dried avocado pulp powder was sourced from Avocado Oil New Zealand Ltd., (Tauranga, New Zealand) and tested for absolute quantities of AvoB per gram of powder using a validated analytical method^61. Clinical trial material was then standardized to contain low dose (50 mg) or high dose (200 mg) AvoB (FIG. 9). The placebo product was formulated similarly to the investigational product except it only contained the non-medicinal food-grade ingredients used in the test product and other excipients that were used to simulate appearance, smell, texture and taste of the investigational product. Participants in every group consumed 40 g of material per day for 60 days by dissolving/blending the product in 12-16 ounces of a smoothie like diluent (e.g., milk (with or without lactose), soy milk, coconut milk, or fruit juice of the participant's choice). All three products were approximately matched for total calories per serving.
Healthy volunteers (13 males and 17 females; age range 20-54 years, BMI range 19.1-29.9) were enrolled in the study. Exclusion criteria were: presence of active clinical disease and history of diabetes, hypertension, dyslipidemia, major depressive disorders, chronic liver disorders, kidney disorders, or blood disorders. […] Primary outcome was the analysis of adverse experiences (AEs) measured throughout the study. Secondary outcomes were to ascertain safety and tolerability which were assessed through clinically relevant changes in standard laboratory evaluations (blood chemistry and hematology) measured on days 0, 30 and 60. Body mass index (BMI) and glycated hemoglobin (HbA1c) were also measured as part of secondary outcomes. […]
Mean change from baseline at day 30 and 60 for all laboratory evaluations and body weight were analysed by the non-parametric Kruskal-Wallis—One-Way Analysis of Variance on Ranks. using GraphPad Prism 6.0 (GraphPad Software, USA) where differences with p<0.05 were considered to be statistically significant. AEs were tabulated (for all randomized patients who received at least one dose of study supplements) and analyzed using Fisher's exact test of independence in Statistical Analysis System (SAS) university edition where differences with p<0.05 were considered to be statistically significant.

avocatin B [AvoB]
AMPK activation (pAMPKα-Thr172) [1]: independent of AMP-activated protein kinase (AMPK) activation | Mitochondrial biogenesis (PGC-1α protein, NAO dye) [1]: independent | Glucose oxidation by HRR after 10 mM glucose (metabolic flexibility) (C2C12 myotubes; 0.25 mM palmitate 24 h, then 10 mM glucose 15 min): increased | Palmitate supported respiration (OCR, HRR) (C2C12 myotubes; 0.25 mM palmitate-BSA/1 mM L-carnitine, 24 h): inhibited palmitate supported basal and maximal-uncoupled respiration | Gonadal and mesenteric fat pad (GFP and MFP) weights [2]: reductions in both gonadal and mesenteric fat pad (GFP and MFP) weights | Mouse weight at study completion [2]: weighed significantly less than HFD-control mice | Body weight change between baseline and day 30 ([3]; both AvoB supplemented groups relative to placebo, trend, not statistically significant (p=0.10)): decreases in body weight | Change from baseline in body mass index or glycated hemoglobin (HbA1c) ([3]; either AvoB treated group compared to placebo): No clinically relevant changes from baseline | Overall tolerability / toxicity (adverse events) ([3]; healthy human participants, 50 or 200 mg AvoB/day for 60 days): generally well-tolerated; also recorded: exerted no toxicity
